Assay results taken from ChEMBL document CHEMBL1201862, “PubChem BioAssay data set” (2004).
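Protocol summary: plate cells (96-well), add compound at 5 concentrations, incubate 48 h, interpolate endpoints linearly. GI50 marks 50% less growth.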 Activity calls are given as the source filed them. Rule as the data show it: active = GI50 up to about 1.1 µM and inactive = higher.

What was measured:
Test in all cases: NCI tumour cell line growth inhibition, 48 h
COLO 205 = test system: COLO 205
EKVX = test system: EKVX
HOP-92 = test system: HOP-92
HT-29 = test system: HT-29
Hs-578T = test system: Hs-578T
LOX IMVI = test system: LOX IMVI
M14 = test system: M14
MCF7 = test system: MCF7
MDA-MB-435 = test system: MDA-MB-435
MOLT-4 = test system: MOLT-4
Malme-3M = test system: Malme-3M
NCI-H226 = test system: NCI-H226
NCI-H460 = test system: NCI-H460
NCI/ADR-RES = test system: NCI/ADR-RES
RPMI-8226 = test system: RPMI-8226
SF-295 = test system: SF-295
SK-MEL-28 = test system: SK-MEL-28
SNB-19 = test system: SNB-19
SNB-75 = test system: SNB-75
T47D = test system: T47D

| SMILES | GI50 (COLO 205) | GI50 (EKVX) | GI50 (HOP-92) | GI50 (HT-29) | GI50 (Hs-578T) | GI50 (LOX IMVI) | GI50 (M14) | GI50 (MCF7) | GI50 (MDA-MB-435) | GI50 (MOLT-4) | GI50 (Malme-3M) | GI50 (NCI-H226) | GI50 (NCI-H460) | GI50 (NCI/ADR-RES) | GI50 (RPMI-8226) | GI50 (SF-295) | GI50 (SK-MEL-28) | GI50 (SNB-19) | GI50 (SNB-75) | GI50 (T47D) |
| --- | --- | --- | --- | --- | --- | --- | --- | --- | --- | --- | --- | --- | --- | --- | --- | --- | --- | --- | --- | --- |
| COc1ccc(/C=N/n2c(Cc3ccc(Cl)cc3)n[nH]c2=O)c(OC)c1 | > 100 µM (inactive) | 33.1 µM (inactive) | 29.2 µM (inactive) | 24.9 µM (inactive) | 14.3 µM (inactive) | 60.5 µM (inactive) | 94.8 µM (inactive) | 33.6 µM (inactive) | 36.8 µM (inactive) | > 100 µM (inactive) | > 100 µM (inactive) | 29.9 µM (inactive) | > 100 µM (inactive) | 12.3 µM (inactive) | > 100 µM (inactive) | 19 µM (inactive) | 80 µM (inactive) | 20.7 µM (inactive) | 15.9 µM (inactive) | 69 µM (inactive) |
| O=C1/C(=C/c2ccccc2)CN(C(=O)CCN2CCCC2)C/C1=C\c1ccccc1 | 1.53 µM (inactive) | 2.49 µM (inactive) | 4.44 µM (inactive) | 0.867 µM (active) | 0.282 µM (active) | 0.687 µM (active) | 1.74 µM (inactive) | 0.64 µM (active) | 1.28 µM (inactive) | 0.356 µM (active) | 3.03 µM (inactive) | 6 µM (inactive) | 1.77 µM (inactive) | 0.27 µM (active) | 0.253 µM (active) | 1.09 µM (active) | 1.62 µM (inactive) | 2.51 µM (inactive) | 4.98 µM (inactive) | 1.76 µM (inactive) |
| CCC(NC(C)c1ccccc1)C(O)c1ccc(OCc2ccccc2)c(OCc2ccccc2)c1 (stereo not given) | 2.23 µM (inactive) | 16.5 µM (inactive) | 5.74 µM (inactive) | 3.31 µM (inactive) | 19 µM (inactive) | 12.1 µM (inactive) | 4.86 µM (inactive) | 14.3 µM (inactive) | 13.8 µM (inactive) | 14.8 µM (inactive) | 14.6 µM (inactive) | 18.6 µM (inactive) | 15.1 µM (inactive) | 15.8 µM (inactive) | 4.04 µM (inactive) | 20.4 µM (inactive) | 19.9 µM (inactive) | 14.5 µM (inactive) | 10.6 µM (inactive) | 15.1 µM (inactive) |
| COc1cc2c(cc1C)NC(=O)/C2=C/c1c(Cl)[nH]c2cc(C)c(OC)cc12 | 2.33 µM (inactive) | 8.04 µM (inactive) | 10.3 µM (inactive) | 4.29 µM (inactive) | 8.65 µM (inactive) | 2.42 µM (inactive) | 2.15 µM (inactive) | 1.4 µM (inactive) | 2.69 µM (inactive) | 1.45 µM (inactive) | 11.5 µM (inactive) | 17.2 µM (inactive) | 0.774 µM (active) | 3.19 µM (inactive) | 3.98 µM (inactive) | 1.21 µM (inactive) | 8.13 µM (inactive) | 4.63 µM (inactive) | 2.34 µM (inactive) | 2.23 µM (inactive) |
